The subject of series [1] is L1210. Nature of the series: In vitro cytotoxic activity, L1210. Type of series: cell-based. The settings on record: for IC50: L1210 in vitro cytotoxic activity.
Series [2] deals with L1210. To be noted: read-out: L1210 IC50; L1210, introduction; cited from earlier work.
The test system of series [3] is w794 DNA. Nature of the series: DNA alkylation, thermally-induced strand cleavage of w794 DNA. The class given is biochemical. The settings on record: 23 °C.
A short description of series [4]: Solvolysis at pH 7. The class given is physicochemical.
The test system of series [5] is w794 and w836 duplex DNA. Nature of the series: DNA alkylation of the simple alkylation subunits. The settings on record: for DNA alkylation selectivity (sites): both enantiomers. The class given is biochemical.
The nature of series [6]: Acid-catalyzed solvolysis at pH 3 monitored by UV. The class given is physicochemical. To be noted: for solvolysis half-life t1/2 / solvolysis rate constant k: pH 3, 50% MeOH–buffer.
The conditions of series [7]: pH 3; cited from earlier work.
Series [8] relates to w836 DNA. In words: DNA alkylation, thermally-induced strand cleavage of w836 DNA. The class given is biochemical. The settings on record: after 24 h.

As usually defined, the IC50 is the point on the concentration scale where inhibition reaches its midpoint.

Entries after “also recorded” stand apart in the source; their conditions may differ. Where two headings read alike, the source gives them in different places.

In the case of `COC(=O)c1cc2c([nH]1)C(=O)C=C1N(C(=O)c3cc4cc(OC)c(OC)c(OC)c4[nH]3)CC3CC123` (single isomer, unassigned; (+)) [(+)-1, duocarmycin SA, reference compound], in series [1], the half-maximal inhibitory concentration (IC50) amounted to 10 pM.
In series [1], `COC(=O)c1cc2c([nH]1)C(=O)C=C1N(C(=O)OC(C)(C)C)CC3CC123` (single isomer, unassigned; (+)) [(+)-8, N-Boc-DSA, reference compound] yielded a half-inhibitory concentration (IC50) of 6000 pM.
Turning to `COC(=O)c1cc2c([nH]1)C(=O)C=C1N(C(=O)c3cc4cc(OC)c(OC)c(OC)c4[nH]3)CC3CC123` (single isomer, unassigned; (-)) [(−)-1, duocarmycin SA, reference compound], the IC50 in series [1] stood at 100 pM.
On the same count and under the same terms, next, `COC(=O)c1cc2c([nH]1)C(=O)C=C1N(C(=O)OC(C)(C)C)CC3CC123` (single isomer, unassigned; (-)) [(−)-8, N-Boc-DSA, reference compound]: 60000 pM; `COC(=O)c1cc2c([nH]1)[C@@]13C[C@@H]1CN(C(=O)c1cc4cc(OC)c(OC)c(OC)c4[nH]1)C3=CC2=O` [(+)-5, iso-duocarmycin SA]: 50 pM; `COC(=O)c1cc2c([nH]1)[C@@]13C[C@@H]1CN(C(=O)OC(C)(C)C)C3=CC2=O` [(+)-7, N-Boc-iso-DSA]: 33000 pM.
Regarding `COC(=O)c1cc2c([nH]1)[C@@]13C[C@@H]1CN(C(=O)c1cc4cc(OC)c(OC)c(OC)c4[nH]1)C3=CC2=O` [(−)-5, iso-duocarmycin SA], the IC50 in series [1] amounted to 550 pM.
On to `COC(=O)c1cc2c([nH]1)[C@@]13C[C@@H]1CN(C(=O)OC(C)(C)C)C3=CC2=O` [(−)-7, N-Boc-iso-DSA], for which, in series [1], the IC50 stood at 330000 pM.
As for `COC(=O)c1cc2c([nH]1)C(=O)C=C1N(C(=O)c3cc4cc(OC)c(OC)c(OC)c4[nH]3)CC3CC123` (stereo not shown) [Compound 1, Duocarmycin SA], in series [2], the IC50 is 10 pM.
In the case of `COC(=O)c1cc2c([nH]1)[C@@]13C[C@@H]1CN(C(=O)c1cc4cc(OC)c(OC)c(OC)c4[nH]1)C3=CC2=O` [Compound 5, iso-duocarmycin SA], the “DNA alkylation site selectivity vs duocarmycin SA counterpart” value in series [3] (w794, 48 h) is “alkylated the same site as its duocarmycin SA counterpart”. Besides, in series [1] (L1210), the “fold difference in potency, natural vs unnatural enantiomer” value is reported as 10 fold and the “fold less potent than the duocarmycin SA / yatakemycin series counterpart” value is listed as 5 fold. Moreover, the IC50 in series [1] came out at 50 pM.
On to `COC(=O)c1cc2c([nH]1)[C@@]13C[C@@H]1CN(C(=O)OC(C)(C)C)C3=CC2=O` [Compound 7, N-Boc-iso-DSA], for which the “solvolysis at pH 7” value in series [4] is listed as “no measurable solvolysis; also recorded: stable”. In series [5], the “times less efficient DNA alkylation than the full length agents” value is on record as 10^3–10^4 times; the “DNA alkylation selectivity (sites)” value is 5′-AA and 5′-TA. Moreover, in series [6], the “solvolysis half-life t1/2” value came out at 89 h and the “solvolysis rate constant k” value turned out to be 2.2e-06 s⁻¹. Moreover, in series [6] (pH 3 solvolysis), the “fold more reactive than N-Boc-DSA (8)” value was 2 fold. Moreover, in series [1] (L1210), the “fold difference in potency, natural vs unnatural enantiomer” value was determined as 10 fold and the “fold less potent than the duocarmycin SA / yatakemycin series counterpart” value was determined as 5 fold.
With `COC(=O)c1cc2c([nH]1)C(=O)C=C1N(C(=O)OC(C)(C)C)CC3CC123` (stereo not shown) [Compound 8, N-Boc-DSA, reference compound], the “solvolysis at pH 7” value in series [4] was “stable”. In addition, in series [7], the “solvolysis half-life t1/2” value is 177 h. Moreover, in series [5], the “times less efficient DNA alkylation than the full length agents” value is 10^3–10^4 times; the “DNA alkylation selectivity (sites)” value is 5′-AA and 5′-TA.
As for O-benzyl-iso-duocarmycin SA [(+)-34], in series [1], 7000 pM corresponded to half-maximal inhibition (IC50).
Turning to O-benzyl-iso-duocarmycin SA [(−)-34], the “fold more reactive than N-Boc-iso-DSA (7)” value in series [6] (pH 3 solvolysis) is 470 fold. For the same molecule, the “DNA alkylation efficiency relative to duocarmycin SA (1)” value in series [3] (w794, 22 h, 1 × 10^−5 M) is listed as “nearly equivalent to that of 1”. Also, in series [1] (L1210), the “fold less active than duocarmycin SA” value was 600 fold and the “fold less active than iso-duocarmycin SA” value is 120 fold. In series [1], this molecule registered an IC50 of 6000 pM.
“O-benzyl-iso-duocarmycin SA [Compound 34]”: in series [4] (pH 7, 50% MeOH–H2O), the “solvolysis half-life t1/2” value worked out at 0.20 h and the “solvolysis rate constant k” value was 0.000977 s⁻¹. Besides, in series [6], the “solvolysis half-life t1/2” value was 0.19 h and the “solvolysis rate constant k” value came to 0.001 s⁻¹. Besides, the “fold more reactive than N-Boc-iso-DSA (7)” value in series [6] (pH 3 solvolysis) was 470 fold.
Consider iso-yatakemycin [(+)-6], for which the “fold less DNA alkylation than the yatakemycin enantiomers” value in series [8] is given as 2–5 fold. In series [1], this molecule yielded an IC50 of 15 pM.
In the case of iso-yatakemycin [(−)-6], the “fold less DNA alkylation than the yatakemycin enantiomers” value in series [8] is given as 2–5 fold. Also, the “fold less potent than the duocarmycin SA / yatakemycin series counterpart” value in series [1] (L1210) is “ca. 5 fold”. In series [1], the IC50 came out at 30 pM.
With “yatakemycin [Compound 3, reference compound]”, the concentration for half-maximal inhibition (IC50) in series [1] is 6 pM; in series [2], 3 to 6 pM.
